Reference: US9771361B2, “Inhibitors of influenza viruses replication” (priority 2013, dated 2017)

Legend:
Type in all cases: cell-based, influenza A virus
Details in all cases: read-out: Cell Protection Assay EC50 ± SD Comp (1)
A/WS/33 = test system: A/WS/33
A/NWS/33 = test system: A/NWS/33
A/Puerto Rico/8/34 = test system: A/Puerto Rico/8/34
A/Weiss/43 = test system: A/Weiss/43
A/Georgia/20/2006 = test system: A/Georgia/20/2006
A/St. Petersburg/8/2006 = test system: A/St. Petersburg/8/2006
A/Virginia/01/2006 = test system: A/Virginia/01/2006
[1] = test system: A/California/07/2009 NYMC X-179A
A/Port Chalmers/1/73 = test system: A/Port Chalmers/1/73
A/Wisconsin/67/2005 = test system: A/Wisconsin/67/2005
A/Nebraska/1/2006 = test system: A/Nebraska/1/2006
A/Texas/12/2007 = test system: A/Texas/12/2007
A/Uruguay/716/2007 = test system: A/Uruguay/716/2007
A/California/07/2009 = test system: A/California/07/2009
A/Mexico/4108/2009 = test system: A/Mexico/4108/2009
A/Texas/48/2009 = test system: A/Texas/48/2009

Compound `O=C(O)[C@H]1C2CCC(CC2)C1Nc1nc(-c2c[nH]c3ncc(F)cc23)ncc1F` (stereo partly shown) [Compound (1)] has an EC50 (A/WS/33) of 3.2 ± 4.3 nM, an EC50 (A/NWS/33) of 0.73 ± 0.1 nM and an EC50 (A/Puerto Rico/8/34) of 3.2 ± 1.8 nM. For the same compound, the EC50 (A/Weiss/43) was 0.31 ± 0.23 nM, the EC50 (A/Georgia/20/2006) was 2.6 ± 3.8 nM and the EC50 (A/St. Petersburg/8/2006) was 0.88 ± 0.69 nM. For the same compound, the EC50 (A/Virginia/01/2006) was 0.42 ± 0.24 nM, the EC50 [1] was 2.7 ± 1.8 nM and the EC50 (A/Port Chalmers/1/73) was 0.54 ± 0.11 nM. It also gave an EC50 (A/Wisconsin/67/2005) of 1.8 ± 0.24 nM, an EC50 (A/Nebraska/1/2006) of 2.1 ± 1.3 nM and an EC50 (A/Texas/12/2007) of 0.65 ± 0.22 nM. It also gave an EC50 (A/Uruguay/716/2007) of 3.5 ± 5.1 nM, an EC50 (A/California/07/2009) of 1.8 ± 1.6 nM and an EC50 (A/Mexico/4108/2009) of 2.7 ± 1.8 nM. It also gave an EC50 (A/Texas/48/2009) of 2.8 ± 3.2 nM.
